By inhibition is commonly meant the percentage by which the read-out fell short of the control. The CC50 is the concentration at which the toxic effect on the cells reaches its halfway point. Higher therefore signals better tolerance by the cells. For orientation: EC50 means the concentration needed to bring the measured effect to its halfway point. Higher therefore signals lower potency in that assay.

Consider eleven compounds from patent US11850247B2, “Antiviral compounds” (REGENTS OF THE UNIVERSITY OF MINNESOTA, priority 2020, dated 2023).

Series [1] relates to HIV-1. Briefly: Anti-HIV-1 activity in TZM-GFP cells (viral LTR-activated GFP expression). Particulars: for EC50: Human immunodeficiency virus 1, HIV-1 strain MOI=1, GFP positive cells counted after 48 hours. In kind it is cell-based. As to the method: The potency of HIV-1 inhibition by a compound was based on its inhibitory effect on viral LTR-activated GFP expression compared with that of compound-free (DMSO) controls. Briefly, TZM-GFP cells were plated at density of 1×10^4 cells per well in a 96-well plate. 24 hours later, media was replaced with increasing concentrations of compound. 24 hours post treatment, cells were exposed to an HIV-1 strain (MOI=1).
(§1) The cytotoxicity of each compound was also determined in TZM-GFP cells. Cells were plated at a density of 1×10^4 cells per well in a 96-well plate and were continuously exposed to increasing concentrations of a compound for 72 hours. The number of viable cells in each well was determined using a Cell Proliferation Kit II (XTT), and 50% cytotoxicity concentration (CC50) values were determined. All the cell-based assays were conducted in duplicate and in at least two independent experiments. For the EC50 and CC50 dose responses, values were plotted in GraphPad Prism 5 and analyzed with the log (inhibitor) vs. normalized response-variable slope equation. Final values were calculated in each independent assay and the average values were determined. Statistical analysis (calculation of standard deviation) was performed by using Microsoft Excel.

The nature of series [2]: Cytotoxicity in TZM-GFP cells (XTT). In kind it is cell-based. Conditions: human, 72 hours exposure, XTT. As to the method:
as §1
For orientation: Tetrazolium assays rely on reduction of a dye to a coloured formazan, in cell work by metabolically active cells.

Series [3] deals with covalently-crosslinked hexameric CA A14C/E45C/W184A/M185A (CA121) (Human immunodeficiency virus type 1 group M subtype B, UniProt P12493, A146C/E177C/M317A/W316A). Nature of the series: Thermal shift assay (TSA), CA hexamer stability. Conditions: compound 20 μM, ΔTm=Tm−T0 vs DMSO. In kind it is binding, HIV-1.

Structures are written as SMILES.

In series [1] (Human immunodeficiency virus 1, 2 μM compound, HIV-1 MOI=1), `Cc1cccc2c1NC(=O)C2CC(=O)N[C@@H](Cc1ccccc1)C(=O)N(C)c1ccccc1` (stereo partly drawn) [Example 1, (2S)—N-methyl-2-(2-(7-methyl-2-oxoindolin-3-yl)acetamido)-N,3-diphenylpropanamide] returned an inhibition at 2 µM of 0%. The compound also displayed an inhibition at 20 µM in series [1] (Human immunodeficiency virus 1, 20 μM compound, HIV-1 MOI=1) of 91%. In addition, in series [2], the CC50 at 72 h is greater than 50 µM. Besides, the “TSA ΔTm (° C.)” value in series [3] is −1.2 °C.

In series [1], `O=C(Cc1c[nH]c2ccccc12)N[C@@H](Cc1ccccc1)c1ncccc1-c1ccc(Cl)cc1` [Example 54, (S)-2-(1H-indol-3-yl)-N-(2-phenyl-1-(3-(4-chlorophenyl)pyridin-2-yl)ethyl)acetamide] returned an EC50 of 0.79 ± 0.25 µM. Besides, the “TSA ΔTm (° C.)” value in series [3] came to 7.7 ± 0.2 °C.

`COc1ccc2[nH]cc(CC(=O)N[C@@H](Cc3ccccc3)c3ncccc3-c3ccc(Cl)cc3)c2c1` [Example 55, (S)-2-(5-methoxy-1H-indol-3-yl)-N-(2-phenyl-1-(3-(4-chlorophenyl)pyridin-2-yl)ethyl)acetamide] displayed an EC50 in series [1] of 1.4 ± 0.7 µM. For the same compound, the “TSA ΔTm (° C.)” value in series [3] worked out at 7.8 ± 0.3 °C.

In series [1], `O=C(Cc1c[nH]c2ccc(O)cc12)N[C@@H](Cc1ccccc1)c1ncccc1-c1ccc(Cl)cc1` [Example 56, (S)-2-(5-hydroxy-1H-indol-3-yl)-N-(2-phenyl-1-(3-(4-chlorophenyl)pyridin-2-yl)ethyl)acetamide] showed an EC50 of 0.31 ± 0.07 µM. The “TSA ΔTm (° C.)” value in series [3] came to 8.7 ± 0.3 °C.

The compound `CCn1cc(CC(=O)N[C@@H](Cc2ccccc2)c2ncccc2-c2ccc(Cl)cc2)c2ccccc21` [Example 57, (S)-2-(1-ethyl-1H-indol-3-yl)-N-(2-phenyl-1-(3-(4-chlorophenyl)pyridin-2-yl)ethyl)acetamide] registered an EC50 in series [1] of 2.7 ± 0.2 µM. Also, the “TSA ΔTm (° C.)” value in series [3] was 6.6 ± 0.2 °C.

In series [1], `CCn1cc(CC(=O)N[C@@H](Cc2ccccc2)c2ncccc2-c2ccc(Cl)cc2)c2cc(OC)ccc21` [Example 58, (S)-2-(1-ethyl-5-methoxy-1H-indol-3-yl)-N-(2-phenyl-1-(3-(4-chlorophenyl)pyridin-2-yl)ethyl)acetamide] yielded an EC50 of 3.6 ± 0.2 µM. In addition, in series [3], the “TSA ΔTm (° C.)” value was determined as 5.9 ± 0.2 °C.

In turn, `COc1ccc2[nH]cc(CC(=O)N[C@@H](Cc3ccccc3)c3ncccc3-c3ccc(Br)cc3)c2c1` [Example 59, (S)-2-(5-methoxy-1H-indol-3-yl)-N-(2-phenyl-1-(3-(4-bromophenyl)pyridin-2-yl)ethyl)acetamide] came in with an EC50 in series [1] of 2.1 ± 0.8 µM. Also, the “TSA ΔTm (° C.)” value in series [3] worked out at 6.3 ± 0.6 °C.

On to `CCn1cc(CC(=O)N[C@@H](Cc2ccccc2)c2ncccc2-c2ccc(Br)cc2)c2ccccc21` [Example 60, (S)-2-(1-ethyl-1H-indol-3-yl)-N-(2-phenyl-1-(3-(4-bromophenyl)pyridin-2-yl)ethyl)acetamide], for which, in series [1], a half-maximal effect (EC50) was put at 3.2 ± 0.3 µM. Also, in series [3], the “TSA ΔTm (° C.)” value was 6.3 ± 0.1 °C.

In series [1], `COc1ccc2[nH]cc(CC(=O)N[C@@H](Cc3ccccc3)c3nccn3-c3ccc(Cl)cc3)c2c1` [Example 61, (S)-2-(5-methoxy-1H-indol-3-yl)-N-(2-phenyl-1-(1-(4-chlorophenyl)-1H-imidazol-2-yl)ethyl)acetamide] displayed an EC50 of 3.3 ± 0.03 µM. Besides, in series [3], the “TSA ΔTm (° C.)” value came out at 4.0 ± 0.3 °C.

Compound `COc1ccc2[nH]cc(CC(=O)N[C@@H](Cc3ccccc3)c3nccn3-c3ccc(Br)cc3)c2c1` [Example 62, (S)-2-(5-methoxy-1H-indol-3-yl)-N-(2-phenyl-1-(1-(4-bromophenyl)-1H-imidazol-2-yl)ethyl)acetamide] returned an EC50 in series [1] of 3.5 ± 0.3 µM. Further, in series [3], the “TSA ΔTm (° C.)” value came out at 2.8 ± 0.3 °C.

In series [1], `COc1ccc2[nH]cc(CC(=O)N[C@@H](Cc3ccccc3)c3nccn3-c3ccc(I)cc3)c2c1` [Example 63, (S)-2-(5-methoxy-1H-indol-3-yl)-N-(2-phenyl-1-(1-(4-iodophenyl)-1H-imidazol-2-yl)ethyl)acetamide] returned an EC50 of 3.3 ± 0.2 µM. In addition, the “TSA ΔTm (° C.)” value in series [3] came out at 2.7 ± 0.1 °C.
